Measurements from the NIST ThermoML archive (doi:10.1016/j.jct.2009.08.002).

Experiment: molar heat capacity at constant pressure; xn = mol fraction of the nth substance listed
Conditions: Liquid, Large sample (1 g) DSC

CCCCCCCC[n+]1ccn(C)c1.F[B-](F)(F)F [1-methyl-3-octylimidazolium tetrafluoroborate] + CC#N
molar heat capacity at constant pressure [J/K/mol]
Conditions | x1 = 0.0359 | x1 = 0.1135 | x1 = 0.1694 | x1 = 0.2341 | x1 = 0.3023 | x1 = 0.4285 | x1 = 0.5437 | x1 = 0.6829 | x1 = 0.8425 | x1 = 1
283.15 K | 103.7 | 133.5 | 155.3 | 181 | 208.3 | 259.1 | 305.8 | 362.2 | 426.5 | 489.8
288.15 K | 104 | 133.9 | 155.9 | 181.7 | 209.1 | 260.4 | 307.3 | 364.1 | 428.9 | 492.6
293.15 K | 104.4 | 134.4 | 156.5 | 182.4 | 210 | 261.7 | 308.9 | 366 | 431.3 | 495.4
298.15 K | 104.8 | 135 | 157.1 | 183.2 | 210.9 | 263 | 310.5 | 368 | 433.7 | 498.3
303.15 K | 105.2 | 135.5 | 157.8 | 184 | 211.9 | 264.3 | 312.2 | 370.1 | 436.2 | 501.2
308.15 K | 105.6 | 136.1 | 158.5 | 184.9 | 212.9 | 265.7 | 313.9 | 372.2 | 438.7 | 504.1
313.15 K | 106.1 | 136.7 | 159.2 | 185.7 | 213.9 | 267.1 | 315.7 | 374.4 | 441.3 | 507.1
318.15 K | 106.5 | 137.4 | 159.9 | 186.6 | 215.1 | 268.5 | 317.5 | 376.7 | 443.9 | 510.2
323.15 K | 107 | 138 | 160.7 | 187.5 | 216.2 | 269.9 | 319.3 | 379 | 446.6 | 513.3

CCCCCCn1cc[n+](C)c1.F[B-](F)(F)F [1-hexyl-3-methylimidazolium tetrafluoroborate] + CC#N
molar heat capacity at constant pressure [J/K/mol]
Conditions | 283.15 K | 288.15 K | 293.15 K | 298.15 K | 303.15 K | 308.15 K | 313.15 K | 318.15 K | 323.15 K
x1 = 0.0648 | 110.9 | 111.2 | 111.6 | 112.1 | 112.5 | 113 | 113.5 | 114 | 114.6
x1 = 0.1342 | 133.5 | 134 | 134.5 | 135 | 135.6 | 136.2 | 136.8 | 137.4 | 138.1
x1 = 0.2127 | 159.4 | 160 | 160.7 | 161.4 | 162.1 | 162.9 | 163.7 | 164.5 | 165.3
x1 = 0.2732 | 179.6 | 180.3 | 181.1 | 181.8 | 182.7 | 183.6 | 184.5 | 185.5 | 186.6
x1 = 0.3828 | 216.5 | 217.5 | 218.5 | 219.6 | 220.7 | 221.8 | 223 | 224.2 | 225.5
x1 = 0.5367 | 268.5 | 269.8 | 271.2 | 272.6 | 274 | 275.6 | 277.2 | 278.8 | 280.5
x1 = 0.7064 | 326.1 | 327.7 | 329.4 | 331.2 | 333.1 | 335.1 | 337.1 | 339.2 | 341.4
x1 = 0.8344 | 369.2 | 371.2 | 373.2 | 375.3 | 377.4 | 379.7 | 382 | 384.5 | 387
x1 = 1 | 425 | 427.2 | 429.6 | 432 | 434.6 | 437.2 | 440 | 442.9 | 445.8
